Source: article PMC8591201, “Anti-Tumor Activity of AZD4547 Against NTRK1 Fusion Positive Cancer Cells Through Inhibition of NTRKs” (Frontiers in Oncology, 2021)

Assays:
[1] = system: T1, TRKA G595R; assay: cells; set-up: species or system Ba/F3; CellTiter-Glo anti-proliferation of Ba/F3 cells transformed with ETV6-NTRK fusions; settings: Mus musculus, BaF3, 72 h, read-out: LOXO195 GI50
T1 construct: ETV6 (1-336)-NTRK1 kinase domain (434-790) fusion expressed in Ba/F3
Procedure: (§1) To obtain the GI50 value of a substance, cell viability was measured using MTT (G4000, Promega, USA) for KM12(Luc) cell and Cell titer glo (G7572, Promega, USA) for other cell lines. For adherent cells, cells were seeded at 5,000 cells/well in a 96-well plate and treated with a substance one day after cell seeding. For suspension cells, 10,000 cells/well were seeded and the substance was treated after 4 h stabilization of cells. The substance was treated at 10 points of 1:3 serial dilution (0–100 µmol/L) for 72 h. For MTT assay, 15 µL dye solution was added to each well and incubated 4 h at 37°C. 100 µL of solubilization solution was added and followed 1 hr incubation. Absorbance at 570 nm of each well was recorded using EnVision microplate reader (Perkin Elmer). For Cell titer glo assay, Cell titer glo reagent was treated in each well and measured the luminescence by EnVision microplate reader (Perkin Elmer). Viable cells in each well were normalized by using 0.5% DMSO-treated wells (100%). The inhibitor dose−response curve was fitted and GI50 values were calculated using Prism 7.0 software (GraphPad). All assays were performed in duplicate and the standard deviation (SD) was determined from two independent experiments. To investigate the inhibitory activity of AZD4547 against clinically relevant TRK mutants which have resistance to the known TRK inhibitors ([8], [44]), we established Ba/F3 cell lines harboring the ETV6-NTRKs fusion genes (NTRK1, NTRK1G595R, NTRK1G667A, NTRK1G667C, NTRK1G667S and NTRK2) ( Supplementary Figure 2 ). The mutation status of each established cell line was confirmed by sequencing of its cDNA ( Supplementary Figure 2 ). The anti-proliferation activity of AZD4547 was then measured in each cell line ( Figure 2A and Table S2 ). […] However, AZD4547 has no inhibitory activity against Ba/F3 harboring clinically relevant TRKs mutants including TRKA G595R, TRKA G667S, TRKA G667C and TRKA G667A. We next evaluated if AZD4547 is capable of suppressing the phosphorylation of TRKA/B in Ba/F3 cell lines ( Figure 2B ). […] Also, phosphorylation of TRKA/B is almost completely abolished using 1 µM of AZD4547. […] (A) Summary of GI50s of AZD4547 against Ba/F3: TRKA mutants or TRKB. Cell viability after 72 h exposure to the indicated inhibitors, determined by using a cell titer glo assay in duplicate mode. Data was plotted as mean GI50 ± SD of two independent experiments. (B) AZD4547 inhibits phosphorylation of TRKA/B and PLC-gamma in Ba/F3 harboring TRKA and TRKB, respectively. […] Data are representative of three independent experiments.

[2] = system: T2, TRKA G667A; assay: cells; set-up: species or system Ba/F3; CellTiter-Glo anti-proliferation of Ba/F3 cells transformed with ETV6-NTRK fusions; settings: Mus musculus, BaF3, 72 h, read-out: LOXO195 GI50
T2 construct: ETV6 (1-336)-NTRK1 kinase domain (434-790) fusion expressed in Ba/F3
Procedure: as §1

[3] = system: T3, TRKA G667C; assay: cells; set-up: species or system Ba/F3; CellTiter-Glo anti-proliferation of Ba/F3 cells transformed with ETV6-NTRK fusions; settings: Mus musculus, BaF3, 72 h, read-out: LOXO195 GI50
T3 construct: ETV6 (1-336)-NTRK1 kinase domain (434-790) fusion expressed in Ba/F3
Procedure: as §1

[4] = system: T4, TRKA G667S; assay: cells; set-up: species or system Ba/F3; CellTiter-Glo anti-proliferation of Ba/F3 cells transformed with ETV6-NTRK fusions; settings: Mus musculus, BaF3, 72 h, read-out: LOXO195 GI50
T4 construct: ETV6 (1-336)-NTRK1 kinase domain (434-790) fusion expressed in Ba/F3
Procedure: as §1

[5] = system: T5, TRKA; assay: cells; set-up: species or system Ba/F3; CellTiter-Glo anti-proliferation of Ba/F3 cells transformed with ETV6-NTRK fusions; settings: Mus musculus, BaF3, 72 h, read-out: LOXO195 GI50
T5 construct: ETV6 (1-336)-NTRK1 kinase domain (434-790) fusion expressed in Ba/F3
Procedure: as §1

[6] = system: T6, TRKB; assay: cells; set-up: species or system Ba/F3; CellTiter-Glo anti-proliferation of Ba/F3 cells transformed with ETV6-NTRK fusions; settings: Mus musculus, BaF3, 72 h, read-out: LOXO195 GI50
T6 construct: ETV6 (1-336)-NTRK2 kinase domain (455-822) fusion expressed in Ba/F3
Procedure: as §1

[7] = in vitro; set-up: CellTiter-Glo viability of parental Ba/F3 cells, counter-screen; settings: mouse, parental ba/f3 cells
Procedure: To obtain the GI50 value of a substance, cell viability was measured using MTT (G4000, Promega, USA) for KM12(Luc) cell and Cell titer glo (G7572, Promega, USA) for other cell lines. For adherent cells, cells were seeded at 5,000 cells/well in a 96-well plate and treated with a substance one day after cell seeding. For suspension cells, 10,000 cells/well were seeded and the substance was treated after 4 h stabilization of cells. The substance was treated at 10 points of 1:3 serial dilution (0–100 µmol/L) for 72 h. For MTT assay, 15 µL dye solution was added to each well and incubated 4 h at 37°C. 100 µL of solubilization solution was added and followed 1 hr incubation. Absorbance at 570 nm of each well was recorded using EnVision microplate reader (Perkin Elmer). For Cell titer glo assay, Cell titer glo reagent was treated in each well and measured the luminescence by EnVision microplate reader (Perkin Elmer). Viable cells in each well were normalized by using 0.5% DMSO-treated wells (100%). The inhibitor dose−response curve was fitted and GI50 values were calculated using Prism 7.0 software (GraphPad). All assays were performed in duplicate and the standard deviation (SD) was determined from two independent experiments. […] Cell viability after 72 h exposure to the indicated inhibitors, determined by using a cell titer glo assay in duplicate mode. […]

## C[C@@H]1CCc2ncc(F)cc2[C@H]2CCCN2c2ccn3ncc(c3n2)C(=O)N1 [LOXO195]
[1]
  GI50: […]
[2]
  GI50: 0.0241 ± 0.0083 µM
[3]
  GI50: […]
[4]
  GI50: 0.0355 ± 0.0025 µM
[5]
  GI50: […]
[6]
  GI50: […]
[7]
  CC50 at 72 h: > 2 µM
